# Test results taken from ChEMBL document CHEMBL1921772, “Crassocolides N-P, three cembranoids from the Formosan soft coral Sarcophyton crassocaule” (Bioorg Med Chem Lett, 2011).
# Legend:
# Format in all cases: functional, cell-based
# [1] = test system: KB; assay: Cytotoxicity against human KB cells after 1 to 11 days by MTT assay
# [2] = test system: HeLa; assay: Cytotoxicity against human HeLa cells after 1 to 11 days by MTT assay
# [3] = test system: Daoy; assay: Cytotoxicity against human DaOY cells after 1 to 11 days by MTT assay
Structure (SMILES),IC50 [1] [µg/mL],IC50 [2] [µg/mL],IC50 [3] [µg/mL]
C=C1C(=O)O[C@H]2/C=C(\C)CC/C=C(\C)CCC(=O)[C@]3(C)O[C@@H]3C[C@@H]12 [CRASSOCOLIDE N],4.7,4.7,2.8
C=C1C(=O)O[C@H]2/C=C(\C)CC/C=C(\C)CCC(=O)/C(C)=C\C[C@@H]12 [CRASSOCOLIDE O],> 20,> 20,4.5
C=C1C(=O)O[C@H]2/C=C(\C)CC/C=C(\C)CC[C@H](OC(C)=O)/C(C)=C\C[C@@H]12 [CRASSOCOLIDE P],> 20,10.8,1.9
CO[C@@]12[C@H](COC(N)=O)C3=C(C(=O)C(C)=C(N)C3=O)N1C[C@@H]1N[C@@H]12 [MITOMYCIN],0.08,0.06,0.05
